The assay concerns HIV-1 (H9IIIB strain). In words: Cell-based HIV infection assay using a reporter (Cell-Based), MT4-GFP cells. To be noted: Human immunodeficiency virus 1, MT4-GFP cells infected with HIV-1 H9IIIB; 50% normal human serum; mean of at least two independent experiments; read-out: Cell-based IP. Put shortly: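 IC50 from 4-parameter dose-response of % viral growth inhibition, using the 48 h/24 h infected-cell ratio scaled between DMSO and a protease/integrase/NNRTI triple-drug control. Assay used MT4 cells with HIV-LTR-GFP reporter, pre-infected 24 h with HIV-1 H9IIIB, in 50% normal human serum.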
As to `C[C@H]1CNC[C@H](CCc2c(F)cccc2NC(=O)[C@@H](N)[C@@H](c2ccc(Cl)cc2)c2cccc(F)c2)N1S(=O)(=O)c1ccccc1` [Example 101, (βS)-4-chloro-N-(3-fluoro-2-{2-[(2S,6S)-6-methyl-1-(phenylsulfonyl)piperazin-2-yl]ethyl}phenyl)-β-(3-fluorophenyl)-L-phenylalaninamide], the IC50 amounted to 24 nM.
`C[C@H]1CNC[C@H](CCc2c(F)cccc2NC(=O)[C@@H](N)[C@@H](c2ccc(F)cc2)C2CCOCC2)N1S(=O)(=O)c1ccccc1` [Example 102, (βR)-4-fluoro-N-(3-fluoro-2-{2-[(2S,6S)-6-methyl-1-(phenylsulfonyl)piperazin-2-yl]ethyl}phenyl)-β-(tetrahydro-2H-pyran-4-yl)-L-phenylalaninamide]: the IC50 was 19 nM.
Regarding `COC(=O)N[C@H](C(=O)Nc1cccc(F)c1CC[C@H]1CNC[C@@H](C)N1S(=O)(=O)c1ccccc1)[C@@H](c1ccc(F)cc1)C1CCOCC1` [Example 103, (βR)-4-fluoro-N-(3-fluoro-2-{2-[(2S,6R)-6-methyl-1-(phenylsulfonyl)piperazin-2-yl]ethyl}phenyl)-Nα-(methoxycarbonyl)-β-(tetrahydro-2H-pyran-4-yl)-L-phenylalaninamide], the IC50 came out at 8.6 nM.
To `C[C@@H]1CNC[C@H](CCc2c(F)cccc2NC(=O)[C@@H](N)[C@@H](c2ccc(F)cc2)C2CCOCC2)N1S(=O)(=O)c1ccccc1` [Example 104, (βR)-4-fluoro-N-(3-fluoro-2-{2-[(2S,6R)-6-methyl-1-(phenylsulfonyl)piperazin-2-yl]ethyl}phenyl)-β-(tetrahydro-2H-pyran-4-yl)-L-phenylalaninamide] belongs 37 nM; to `C[C@H]1CNC[C@H](CCc2c(F)cncc2NC(=O)[C@@H](N)[C@@H](c2ccc(F)cc2)c2cc(F)cc(F)c2)N1S(=O)(=O)c1ccccc1` [Example 105, (βS)-β-(3,5-difluorophenyl)-4-fluoro-N-(5-fluoro-4-{2-[(2S,6S)-6-methyl-1-(phenylsulfonyl)piperazin-2-yl]ethyl}pyridin-3-yl)-L-phenylalaninamide], 19 nM.
For the compound `C[C@H]1CNC[C@H](CCc2c(F)cccc2NC(=O)[C@@H](N)[C@@H](c2ccc(F)cc2)c2cc(F)cc(F)c2)N1S(=O)(=O)c1cccc(F)c1` [Example 106, (βS)-β-(3,5-difluorophenyl)-4-fluoro-N-[3-fluoro-2-(2-{(2S,6S)-1-[(3-fluorophenyl)sulfonyl]-6-methylpiperazin-2-yl}ethyl)phenyl]-L-phenylalaninamide], the IC50 worked out at 30 nM.
To `COC(=O)N[C@H](C(=O)Nc1cccc(F)c1CC[C@H]1CNC[C@H](C)N1S(=O)(=O)c1cccc(F)c1)[C@@H](c1ccc(F)cc1)c1cc(F)cc(F)c1` [Example 107, (βS)-β-(3,5-difluorophenyl)-4-fluoro-N-[3-fluoro-2-(2-{(2S,6S)-1-[(3-fluorophenyl)sulfonyl]-6-methylpiperazin-2-yl}ethyl)phenyl]-Nα-(methoxycarbonyl)-L-phenylalaninamide] belongs 150 nM.
To `C[C@H]1CNC[C@H](CCc2c(F)cccc2NC(=O)[C@@H](N)[C@@H](c2ccc(Cl)cc2)c2cccc(F)c2)N1S(C)(=O)=O` [Example 108, (βS)-4-chloro-N-(3-fluoro-2-{2-[(2S,6S)-6-methyl-1-(methylsulfonyl)piperazin-2-yl]ethyl}phenyl)-β-(3-fluorophenyl)-L-phenylalaninamide] belongs 32 nM.
In the case of `CC(C)[C@H](c1ccc(Cl)cc1)[C@H](N)C(=O)Nc1cccc(F)c1CC[C@H]1CNC[C@H](C)N1S(=O)(=O)c1ccccc1` [Example 109, (βR)-4-chloro-N-(3-fluoro-2-{2-[(2S,6S)-6-methyl-1-(phenylsulfonyl)piperazin-2-yl]ethyl}phenyl)-β-(1-methylethyl)-L-phenylalaninamide], the IC50 came to 65 nM.
